From patent publication US8609674B2, “Potassium channel modulators” (AbbVie Inc., priority 2010, dated 2013) come the findings set out here.

Common to all, as to assay type: cell-based
Assay [1] deals with T1, human KCNQ2 and KCNQ3 subunits (KCNQ2/3 channels) (Homo sapiens, UniProt O43525+O43526).
T1 construct: expressed in transfected cells; host or cells: HEK293
Briefly: KCNQ2/3 thallium influx FLIPR assay (BTC-AM dye). The following applies: for EC50: HEK293 cells stably expressing human KCNQ2 and KCNQ3, Tl+ influx; for Emax: maximum response relative to 10 μM retigabine (=100%), read-out: KCNQ2/3 Max. %. The procedure:
The following example describes the assay that may be used to identify compounds that activate KCNQ2/3 channels.
HEK293 cells stably expressing human KCNQ2 and KCNQ3 subunits were seeded in 96-well, black-walled, clear-bottomed, poly-D-lysine coated plates (BD Biosciences, Bedford, Mass.) at a density of 1×10^5 cells per well 24 hours before the assay. On the assay day, BTC-AM dye (Invitrogen, Carlsbad, Calif.) was loaded into the cells by replacing the cell culture medium with 55 μL/well of 3 μg/ml dye in Dulbecco's Phosphate Buffered Saline (DPBS) (Invitrogen). Dye loading was allowed to proceed for 2 hours at room temperature and then cells were washed twice with 50 μL/well of assay buffer (in mM: 10 HEPES pH 7.3, 5 glucose, 140 Na-gluconate, 2.5 K-gluconate, 3.6 Ca-gluconate, 2 MgSO4, 0.1 Ouabain) to remove unloaded dye. Cells were incubated in 50 μL of assay buffer before loading onto a FLIPR system (Molecular Devices, Sunnyvale, Calif.). Various concentrations of compounds to be assayed were added to the cells in 50 μL of assay buffer and incubated for 4 minutes. The fluorescence signal was initiated by adding 100 μL of assay buffer containing 6 mM TlNO3 and 10 mM K2SO4. Fluors were excited using the 488-nm line of an argon laser and emission was filtered using a 540±30 nm bandpass filter. Fluorescent signals were recorded for 3 minutes. Sums of the responses over basal responses were plotted versus concentrations of test compounds to obtain an EC50 value and the points fit with a nonlinear regression curve using GraphPad Prism software (GraphPad Software Inc., San Diego, Calif.). EC50 values were calculated from the resulting sigmoidal dose-response curves. The maximum response for each test compound was determined relative to the response produced by 10 μM retigabine. The maximum response of retigabine at 10 μM was set at 100%.

For another assay, the target named is T2, human KCNQ4 (Homo sapiens, UniProt P56696).
T2 construct: expressed in transfected cells; host or cells: HEK293
Briefly: KCNQ4 thallium influx FLIPR TETRA assay. The following applies: for EC50: HEK293 cells stably expressing human KCNQ4, Tl+ influx; for Emax: maximum response relative to 10 μM retigabine (=100%), read-out: KCNQ4 Max. %. The procedure: (§1) The following example describes the assay that may be used to identify compounds that activate KCNQ4 or KCNQ5 channels.
(§2) The assays were performed using a FLIPR^TETRA (Molecular Devices, Sunnyvale, Calif.) in 384-well format. HEK293 cells stably expressing human KCNQ4 or KCNQ5 were seeded in 384-well, black-walled, clear-bottomed, poly-D-lysine coated plates (Greiner Bio-One, Germany) at a density of 1.5×10^4 cells per well, 24 hours before the assay. On the assay day, BTC-AM dye was loaded into the cells by replacing the cell culture medium with 30 μL/well of 2.8 μM dye in DPBS. Dye loading was allowed to proceed for 2 hours at room temperature and then cells were washed once in 30 μL/well of assay buffer (in mM: 10 HEPES pH 7.3, 5 glucose, 140 Na-gluconate, 2.5 K-gluconate, 3.6 Ca-gluconate, 2 MgSO4, 0.1 Ouabain) to remove unloaded dye. Cells were incubated in 30 μL of assay buffer before loading onto a FLIPR^TETRA system. Compounds to be assayed were added to the cells as 4× of final concentration in 15 μL of assay buffer and incubated for 4 minutes at room temperature. The influx signal was initiated by adding 15 μL of assay buffer containing 4.2 mM TlNO3 and 7 mM K2SO4. Tl^+ influx signals were recorded for 3 minutes. Tl^+ influx signal was quantified as light unit changes after Tl^+ addition using the “SUM” statistic from the FLIPR^TETRA software. Sums of the responses over basal responses were plotted versus concentrations of test compounds to obtain an EC50 value and the points fit with a nonlinear regression curve using GraphPad Prism software (GraphPad Software Inc., San Diego, Calif.). EC50 values were calculated from the resulting sigmoidal dose-response curves. The maximum response for each test compound was determined relative to the response produced by 10 μM retigabine. The maximum response of retigabine at 10 μM was set at 100%.

Another assay deals with T3, human KCNQ5 (Homo sapiens, UniProt Q9NR82).
T3 construct: expressed in transfected cells; host or cells: HEK293
Briefly: KCNQ5 thallium influx FLIPR TETRA assay. Particulars: for EC50: HEK293 cells stably expressing human KCNQ5, Tl+ influx; for Emax: maximum response relative to 10 μM retigabine (=100%), read-out: KCNQ5 Max. %. The procedure:
as §1, §2

With `CC(C)c1nc2ccc(Cl)cc2c(=O)n1NC(=O)C[C@@H]1CC[C@H]2C[C@@H]1C2(C)C` [Example 18, N-[6-chloro-4-oxo-2-(propan-2-yl)quinazolin-3(4H)-yl]-2-[(1S,2S,5S)-6,6-dimethylbicyclo[3.1.1]hept-2-yl]acetamide], the EC50 (in assay [1]; on human KCNQ4; on human KCNQ5) was > 30 µM in each case. The figures for the Emax (in assay [1]; on human KCNQ4; on human KCNQ5) were 8%, 4% and 19%, respectively.
`CC(C)c1nc2ccccc2c(=O)n1NC(=O)C[C@@H]1[C@H](F)C[C@H]2C[C@@H]1C2(C)C` [Example 24, 2-[(1S,2S,3R,5R)-3-fluoro-6,6-dimethylbicyclo[3.1.1]hept-2-yl]-N-[4-oxo-2-(propan-2-yl)quinazolin-3(4H)-yl]acetamide]: the figures for the EC50 (in assay [1]; at human KCNQ4; on human KCNQ5) were < 0.1 µM, > 30 µM and > 30 µM, respectively. The Emax is 25% in assay [1], -43% on human KCNQ4 and 88% at human KCNQ5.
Turning to `CC(C)c1nc2sccc2c(=O)n1NC(=O)C[C@@H]1CC[C@H]2C[C@@H]1C2(C)C` [Example 20, 2-[(1S,2S,5S)-6,6-dimethylbicyclo[3.1.1]hept-2-yl]-N-[4-oxo-2-(propan-2-yl)thieno[2,3-d]pyrimidin-3(4H)-yl]acetamide], the EC50 (as a rule, the midpoint of the concentration-response curve) in assay [1] was 0.1 to 0.5 µM; at human KCNQ4, 1 to 10 µM; at human KCNQ5, > 30 µM. The Emax in assay [1] is 111%; on human KCNQ4, 46%; on human KCNQ5, 10%.
In the case of `CC(C)c1nc2ccccc2c(=O)n1NC(=O)C[C@@H]1C[C@@H]2C[C@H](C1)C2(C)C` [Example 25, 2-[(1R,3s,5S)-6,6-dimethylbicyclo[3.1.1]hept-3-yl]-N-[4-oxo-2-(propan-2-yl)quinazolin-3(4H)-yl]acetamide], the results for the EC50 (in assay [1]; on human KCNQ4; at human KCNQ5) were 0.1 to 0.5 µM, > 30 µM and > 30 µM, respectively. Also, the Emax was 93% in assay [1], -23% at human KCNQ4 and 15% at human KCNQ5.
Turning to `CC1(C)[C@H]2CC[C@@H](CC(=O)Nn3cnc4ccccc4c3=O)[C@@H]1C2` [Example 16, 2-[(1S,2S,5S)-6,6-dimethylbicyclo[3.1.1]hept-2-yl]-N-(4-oxoquinazolin-3(4H)-yl)acetamide], the EC50 in assay [1] is 1 to 10 µM; on human KCNQ4, > 30 µM; on human KCNQ5, > 30 µM. The Emax in assay [1] came out at 144%; on human KCNQ4 it was 6%; at human KCNQ5, 13%.
Take `CC(C)c1nc2ccccc2c(=O)n1NC(=O)CSC[C@@H]1CC[C@H]2C[C@@H]1C2(C)C` [Example 12, 2-({[(1S,2R,5S)-6,6-dimethylbicyclo[3.1.1]hept-2-yl]methyl}sulfanyl)-N-[4-oxo-2-(propan-2-yl)quinazolin-3(4H)-yl]acetamide]: the values for the concentration giving a half-maximal response (EC50) (in assay [1]; at human KCNQ4; at human KCNQ5) were 0.1 to 0.5 µM, > 30 µM and > 30 µM, respectively. Also, the Emax in assay [1] is 149%; at human KCNQ4 it was 41%; at human KCNQ5, 136%.
For the compound `CCc1nc2sccc2c(=O)n1NC(=O)C[C@@H]1CC[C@H]2C[C@@H]1C2(C)C` [Example 6, 2-[(1S,2S,5S)-6,6-dimethylbicyclo[3.1.1]hept-2-yl]-N-(2-ethyl-4-oxothieno[2,3-d]pyrimidin-3(4H)-yl)acetamide], the EC50 in assay [1] was 1 to 10 µM; on human KCNQ4, > 30 µM; on human KCNQ5, > 30 µM. Moreover, the Emax in assay [1] was 99%; on human KCNQ4, 5%; at human KCNQ5, 9%.
